Test results reported in patent publication US9969688B2, “Roflumilast prodrugs” (HISAMITSU PHARMACEUTICAL CO., INC., priority 2014, dated 2018).
Converted amounts (≈) assume the structure as drawn.

Key:
[1] = Evaluation test of skin permeability (Franz diffusion cell); format: in vitro ADME; conditions: hairless mouse skin; for Jmax (maximum skin permeation rate) / Cumulative Amount of Permeation for 24 hours: 1 w/w % in dimethyl sulfoxide, 100 μL, 32° C.
Protocol: Skin was excised from the back of a hairless mouse and the section of the skin was placed in a Franz diffusion cell (glass cell) so that a solution of each of test compounds (compounds of Examples, Comparative Example, or Reference Examples) was contacted with the epidermal side of the section of the skin (applied area: 1 cm^2). Phosphate buffered physiological saline (PBS) was used as a flow solution. The flow rate was set to 5 mL/hour and the temperature of thermoregulated bath was set to 32° C. Next, dimethyl sulfoxide was added to achieve the concentration of the test compound of 1 w/w % and the resultant was stirred thoroughly to prepare a solution of the test compound. The donor chamber of the Franz diffusion cell was charged with 100 μL of the resulting solution of the test compound. The flow solution was sampled every 2 hours until 24 hours after the charge of the test compound solution. The flow solutions sampled every 2 hours were diluted two-fold by adding acetonitrile and the diluted solution was centrifuged to give supernatants as an HPLC analytical sample. Each of the resulting analytical samples was analyzed by high performance liquid chromatography to calculate the maximum skin permeation rate (Jmax) and the cumulative amount of permeation for 24 hours. Roflumilast was used in Comparative Example 1.

[2] = tested on: human liver enzyme fraction; experiment: In vitro metabolism test (metabolic rate into roflumilast); format: in vitro ADME; conditions: treated with human liver enzyme fractions
Protocol: A human liver enzyme fraction was added to 100 mmol/L Tris-HCl buffer containing coenzymes (NADPH-producing) so as to achieve the concentration of 0.5 mg protein/mL and the resultant was pre-incubated at 37° C. for 5 minutes. A test compound was added to this solution so as to achieve the concentration of 0.1 μmol/L and the resultant was incubated at 37° C. for an hour. The reaction was then stopped by adding water-cooled acetonitrile. The resulting solution was filtered and then quantified by using LC-MS/MS to calculate the metabolic rate (%) into roflumilast. It is noted that “with heat treatment” in Table 1 means using a human liver enzyme fraction subjected to heat treatment before adding to thereby inactivate a metabolic enzyme therein.
Numerical values in Table 1 represent metabolic rates (%) into rofiumilast. […] Roflumilast was not produced when metabolic enzymes were inactivated by heat treatments prior to using the human liver enzyme fractions.

[3] = Evaluation test of water solubility (saturated solubility); format: physicochemical; conditions: phosphate buffer (pH 7); for solubility at 30 min: aqueous buffer, thermodynamic from solid, ultrasonicated 30 minutes
Protocol: An excessive amount of a test compound was added to 10 mL of phosphate buffer (pH 7) and the resultant was ultrasonicated for 30 minutes. The resulting suspension was filtered and 0.5 mL of acetonitrile was added to 0.5 mL of the filtrate to obtain a test solution. The concentration of the test compound in the test solution was determined by high performance liquid chromatography to calculate the saturated solubility. Roflumilast was used in Comparative Example 1.

O=C(c1ccc(OC(F)F)c(OCC2CC2)c1)N(CCCO)c1c(Cl)cncc1Cl [Example 5, N-(3,5-dichloropyrid-4-yl)-N-(3-hydroxypropan-1-yl)-3-cyclopropylmethoxy-4-difluoromethoxybenzamide]
Jmax (maximum skin permeation rate) [1]: 8.5 μg/cm^2/hr | Cumulative Amount of Permeation for 24 hours [1]: 163.5 μg/cm^2

O=C(O)CN(C(=O)c1ccc(OC(F)F)c(OCC2CC2)c1)c1c(Cl)cncc1Cl [Reference Example 2, N-carboxymethyl-N-(3,5-dichloropyrid-4-yl)-3-cyclopropylmethoxy-4-difluoromethoxybenzamide, reference compound]
production of roflumilast by human liver enzyme fractions (in words) [2]: did not produce roflumilast | solubility at 30 min [3]: 0.612 mg/mL (≈ 1330 µM) | Ratio to Roflumilast (saturated solubility) [3]: 1640.2 | Jmax (maximum skin permeation rate) [1]: 9.5 μg/cm^2/hr | Cumulative Amount of Permeation for 24 hours [1]: 56.9 μg/cm^2

COCN(C(=O)c1ccc(OC(F)F)c(OCC2CC2)c1)c1c(Cl)cncc1Cl [Example 6, N-(3,5-dichloropyrid-4-yl)-N-methoxymethyl-3-cyclopropylmethoxy-4-difluoromethoxybenzamide]
Jmax (maximum skin permeation rate) [1]: 1.2 μg/cm^2/hr | Cumulative Amount of Permeation for 24 hours [1]: 17.6 μg/cm^2

O=C(c1ccc(OC(F)F)c(OCC2CC2)c1)N(CCO)c1c(Cl)cncc1Cl [Example 2, N-(3,5-dichloropyrid-4-yl)-N-(2-hydroxyethyl)-3-cyclopropylmethoxy-4-difluoromethoxybenzamide]
solubility at 30 min [3]: 0.0125 mg/mL (≈ 27.9 µM) | Ratio to Roflumilast (saturated solubility) [3]: 33.4 | Jmax (maximum skin permeation rate) [1]: 10.7 μg/cm^2/hr | Cumulative Amount of Permeation for 24 hours [1]: 157.7 μg/cm^2

NC(=O)CN(C(=O)c1ccc(OC(F)F)c(OCC2CC2)c1)c1c(Cl)cncc1Cl [Reference Example 1, N-carbamoylmethyl-N-(3,5-dichloropyrid-4-yl)-3-cyclopropylmethoxy-4-difluoromethoxybenzamide, reference compound]
production of roflumilast by human liver enzyme fractions (in words) [2]: did not produce roflumilast | solubility at 30 min [3]: 0.0166 mg/mL (≈ 36 µM) | Ratio to Roflumilast (saturated solubility) [3]: 44.5 | Jmax (maximum skin permeation rate) [1]: 0.9 μg/cm^2/hr | Cumulative Amount of Permeation for 24 hours [1]: 7.2 μg/cm^2

CN(C(=O)c1ccc(OC(F)F)c(OCC2CC2)c1)c1c(Cl)cncc1Cl [Example 3, N-(3,5-dichloropyrid-4-yl)-N-methyl-3-cyclopropylmethoxy-4-difluoromethoxybenzamide]
solubility at 30 min [3]: 0.0097 mg/mL (≈ 23.2 µM) | Ratio to Roflumilast (saturated solubility) [3]: 26.0 | Jmax (maximum skin permeation rate) [1]: 3.2 μg/cm^2/hr | Cumulative Amount of Permeation for 24 hours [1]: 51.0 μg/cm^2

N#CCN(C(=O)c1ccc(OC(F)F)c(OCC2CC2)c1)c1c(Cl)cncc1Cl [Example 1, N-cyanomethyl-N-(3,5-dichloropyrid-4-yl)-3-cyclopropylmethoxy-4-difluoromethoxybenzamide]
solubility at 30 min [3]: 0.00164 mg/mL (≈ 3.72 µM) | Ratio to Roflumilast (saturated solubility) [3]: 4.4 | Jmax (maximum skin permeation rate) [1]: 1.2 μg/cm^2/hr | Cumulative Amount of Permeation for 24 hours [1]: 12.1 μg/cm^2

O=C(Nc1c(Cl)cncc1Cl)c1ccc(OC(F)F)c(OCC2CC2)c1 [Comparative Example 1, N-(3,5-dichloropyrid-4-yl)-3-cyclopropylmethoxy-4-difluoromethoxybenzamide, reference compound]
solubility at 30 min [3]: 0.000373 mg/mL (≈ 0.925 µM) | Ratio to Roflumilast (saturated solubility) [3]: 1 | Jmax (maximum skin permeation rate) [1]: 0.0 μg/cm^2/hr | Cumulative Amount of Permeation for 24 hours [1]: 0.0 μg/cm^2 | skin permeability (in words) ([1]; up to 24 hours): no skin permeability even after 24 hours
